From patent US20250313572A1, “MACROCYCLIC MCL-1 INHIBITORS AND METHODS OF USE” (AbbVie Inc., priority 2017, published 2025) come the findings set out here.

Usually Ki stands for the dissociation constant of the complex between target and ligand, obtained from inhibition or displacement.

Read-outs that look alike come from different tables or passages of the source. Marks after values point to notes of the source that are not given here.

For one assay, the target named is GST-MCL-1 (Homo sapiens, UniProt Q07820). Kind of assay: TR-FRET MCL-1 binding assay (competition with probe F-Bak). In outline:
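Test compounds, 11 three-fold dilutions from 25 μM final, incubated 2 hours at room temperature with GST-MCL-1, F-Bak probe and Tb-anti-GST antibody. TR-FRET read at 340/35 nm excitation with 520/525 and 495/510 nm emission. Run without human serum and with 10% HS.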
(Time-resolved FRET reads energy transfer from a long-lived donor to a nearby acceptor.)

Assay [1] has as its system AMO-1 human multiple myeloma tumor cell line. Kind of assay: AMO-1 cell viability assay (CellTiter-Glo, 24 hours). It is filed as cell-based. Background: In ATP-based viability assays light output follows the ATP content of the culture.
A further assay deals with AMO-1 xenograft. The assay can be described thus: AMO-1 xenograft model of multiple myeloma. It is filed as in vivo, female SCID/bg mice. To be noted: 25 mg/kg/day, IP/QDx1. Here is the method: Tumors were size matched at approximately 200 mm^3. […] Tumor volume was estimated two to three times weekly. […] Seven or eight mice were housed per cage. Food and water were available ad libitum.
Tumor growth inhibition is calculated by 100*(1−Tv/Cv) where Tv and Cv are the mean tumor volumes of the treated and control groups, respectively.

In assay [2] the test system is NCI-H929 human multiple myeloma tumor cell line. Kind of assay: NCI-H929 cell viability assay (CellTiter-Glo, 24 hours). The format is cell-based.
Setting [3] is: MCL-1 Binding Ki (nM, 10% HS), in the presence of 10% HS (human serum).
Where [4] appears, read: without HS, read-out: MCL-1 Binding Ki.

GST-MCL-1, sequence (Q07820 whole entry): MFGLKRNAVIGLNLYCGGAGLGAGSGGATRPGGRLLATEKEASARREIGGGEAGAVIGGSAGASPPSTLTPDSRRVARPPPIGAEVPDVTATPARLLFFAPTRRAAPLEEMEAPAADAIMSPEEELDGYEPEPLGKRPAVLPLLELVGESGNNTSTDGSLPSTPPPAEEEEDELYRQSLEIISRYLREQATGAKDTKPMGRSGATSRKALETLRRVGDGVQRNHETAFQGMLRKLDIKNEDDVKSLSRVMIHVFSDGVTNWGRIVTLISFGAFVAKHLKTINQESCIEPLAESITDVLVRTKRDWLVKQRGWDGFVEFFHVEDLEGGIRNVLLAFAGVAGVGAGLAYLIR

Turning to `COCCOCCOCCOCCOCCOCC1(C)CC=C(c2nccc(COc3ccc4cc3C[C@H](C(=O)O)Oc3ncnc5sc(-c6ccc(F)cc6)c(c35)-c3c(C)c(Cl)c(c(Cl)c3C)O[C@H](CN3CCN(C)CC3)CO4)n2)CC1` (single isomer, unassigned) [Example 84, (7R,16R)-19,23-dichloro-1-(4-fluorophenyl)-10-({2-[(4R*)-4-(2,5,8,11,14,17-hexaoxaoctadecan-1-yl)-4-methylcyclohex-1-en-1-yl]pyrimidin-4-yl}methoxy)-20,22-dimethyl-16-[(4-methylpiperazin-1-yl)methyl]-7,8,15,16-tetrahydro-18,21-etheno-13,9-(metheno)-6,14,17-trioxa-2-thia-3,5-diazacyclononadeca[1,2,3-cd]indene-7-carboxylic Acid], the values for the Ki on GST-MCL-1 (setting [3]) and at GST-MCL-1 (setting [4]) were 0.232 nM and 0.033 nM, respectively. Besides, the IC50 worked out at 0.175 nM in assay [1] (Homo sapiens, AMO1, 24 h, read-out: AMO-1 Viability IC50 (μM, 10% FBS), 10% FBS, 24 hours of compound treatment) and 0.000528 µM in assay [2] (Homo sapiens, NCI-H929, 24 h, read-out: H929 Viability IC50 (μM, 10% FBS), 10% FBS, 24 hours of compound treatment). In addition, the “TGD (%)” value in the assay on AMO-1 xenograft is reported as 33* %. Also, in the assay on AMO-1 xenograft, the “TGImax (%)” value is 71* %.
Regarding `COCCOCCOCC1(F)CC=C(c2nccc(COc3ccc4cc3C[C@H](C(=O)O)Oc3ncnc5sc(-c6ccc(F)cc6)c(c35)-c3c(C)c(Cl)c(c(Cl)c3C)O[C@H](CN3CCN(C)CC3)CO4)n2)CC1` (single isomer, unassigned) [Example 87, (7R,16R)-19,23-dichloro-10-({2-[(4R*)-4-fluoro-4-{[2-(2-methoxyethoxy)ethoxy]methyl}cyclohex-1-en-1-yl]pyrimidin-4-yl}methoxy)-1-(4-fluorophenyl)-20,22-dimethyl-16-[(4-methylpiperazin-1-yl)methyl]-7,8,15,16-tetrahydro-18,21-etheno-13,9-(metheno)-6,14,17-trioxa-2-thia-3,5-diazacyclononadeca[1,2,3-cd]indene-7-carboxylic Acid], the Ki at GST-MCL-1 (setting [3]) was found to be 0.068 nM; on GST-MCL-1 (setting [4]), 0.004 nM. Moreover, the IC50 in assay [1] (read-out: AMO-1 Viability IC50 (μM, 10% FBS), 10% FBS, 24 hours of compound treatment) was determined as 0.0959 nM; in assay [2] (read-out: H929 Viability IC50 (μM, 10% FBS), 10% FBS, 24 hours of compound treatment), 0.000253 µM. Also, in the assay with AMO-1 xenograft, the “TGD (%)” value was 158* %. Further, in the assay on AMO-1 xenograft, the “TGImax (%)” value is on record as 99* %.
